Laboratory results taken from EPA's ToxValDB 9.5 (doi:10.2903/j.efsa.2016.4515).
In brackets after ≈: the same amount, converted by molar mass.

Tests used:
Folsomia candida = conditions: chronic/long-term; mortality
Colinus virginianus = conditions: acute, oral, mortality
Apis mellifera = conditions: acute, mortality
Anas platyrhynchos = conditions: chronic/long-term
Bibionidae = conditions: chronic/long-term, other
Neomysis kadiakensis = conditions: chronic/long-term; duration: 28 days; reproduction
Aphidius rhopalosiphi = test: LR50; higher = less toxic; conditions: not reported; other

CO/C=C(/C(=O)OC)c1ccccc1COc1cccc(C(F)(F)F)n1 [Picoxystrobin] was tested, and the NOEC (Folsomia candida) was 12.5 mg/kg, the LD50 (Colinus virginianus; diet) was over 1770 mg/kg-day and the LD50 (Colinus virginianus) was over 2250 mg/kg. The LD50 (Apis mellifera; dermal) was over 200 µg/piece, the LD50 (Apis mellifera; oral, unspecified) was over 200 µg/piece and the LD50 (Rattus norvegicus; acute, mortality) was over 5000 mg/kg. It also gave an NOAEL (Rattus norvegicus; chronic) of 21.8 mg/kg-day, an NOEL (Anas platyrhynchos) of 110 mg/kg-day and an NOEC (Bibionidae; duration: 21 days) of 0.0084 mg/L. For the same molecule, the NOEC (Bibionidae; duration: 28 days) was 5 mg/kg, the LC50 (Tagia sp.; acute, mortality) was 3.35 mg/kg and the NOEC (Tagia sp.; chronic/long-term, reproduction) was 0.315 mg/kg. For the same molecule, the NOEC (Neomysis kadiakensis) was 0.0036 mg/L, the LC50 (Oncorhynchus mykiss; acute, duration: 96 hours, mortality) was 0.05 µg/mL (≈ 0.136 µM) and the NOEC (Oncorhynchus mykiss; chronic/long-term, duration: 28 days, growth) was 0.01 mg/L. The LR50 (Aphidius rhopalosiphi) was 0.675 g/ha.
